Experimental data as given in a melting point compilation (Tetko et al.; mined from patent text by program, amines drawn as free bases though some values may be those of a salt).

Structure (SMILES) | melting point [°C]
Oc1cc(Br)c(-c2c3ccccc3c(Br)c3sc4ccccc4c23)cc1O | 138 to 140
Cc1ccc(C2c3c(C)c(Br)c(C)c(C=O)c3OC2(C)C)cc1 (stereo unspecified) | 128 to 130
COC(=O)C1=C(C)NC(C)=C(C(=O)OCCN2CCN(c3cccc(Cl)c3)CC2)C1c1cccc([N+](=O)[O-])c1 (stereo unspecified) | 65 to 68
COc1ccc(CC(=O)O)cc1OC1CCCC1 | 79 to 80
CCc1ccc(CC2CNC(=O)O2)cc1 (stereo unspecified) | 133 to 134
CCCCCS(=O)(=O)NC(=O)/C=C/c1ccc(OCCOC)cc1Oc1ncc(Cl)cc1Cl | 119 to 120
CCOC(=O)NC(=O)n1sc(OCC)nc1=O | 119
O=C(O)c1cn2c3c(cc(Cl)cc3c1=O)C(O)CC2 (stereo unspecified) | > 250
O=C(O)COc1cccc2c1Cc1sc(SCc3ccccc3)nc1-2 | 166 to 169
COc1ccc(C(=O)c2cccc(C(F)(F)F)c2F)c(OC)c1 | 79 to 82
CCCn1nc(C(C)C)c(C(N)=O)c1Cc1ccc(-c2ccccc2S(=O)(=O)NC(=O)c2ccccc2)cc1 | 197 to 200
Cc1cc(C(O)CN(C)Cc2cc3c(=O)c(C(=O)NCc4ccc(Cl)cc4)cn(C)c3o2)oc1C (stereo unspecified) | 140
Cc1cc(Br)c(S(C)(=O)=O)cc1C(=O)N=C(N)N | 207 to 208
CC(C)(C)OC(=O)Nc1sc(Cl)nc1Cl | 111 to 112
COC(=O)c1cc(C=O)c(C(F)(F)F)cc1NC(C)=O | 106 to 108
COc1cc(Cc2ccccc2)c(O)c2c1C(C)(C)CCC2(C)C | 80
CN1c2cccc(CC(=O)O)c2Sc2c(C(N)C(=O)OCC3c4ccccc4-c4ccccc43)cccc21 (stereo unspecified) | 217 to 219
CC1(Oc2ccc(CC(=O)c3ccc4c(c3)CCC4)cc2)CCCC1C(=O)O (stereo unspecified) | 191 to 193
CC1CC(C(=O)O)CCN1C(=O)OC(C)(C)C (stereo unspecified) | 109 to 112
C=CCC[Si](c1ccccc1)(c1ccccc1)C1SCCCS1 | 47 to 49

Structure (SMILES) | melting point [°C]
CNC(=N[N+](=O)[O-])N(Cc1ccc(Cl)nc1)C(C)=O | 124 to 125
O=C1c2ccccc2C(=S)N1C1CCC(=S)NC1=S (stereo unspecified) | 244
CCN(CC)C(=O)c1ccccc1C(C)(C)C | 38.5 to 40.5
Cn1c(C(F)(F)F)cc(=O)n(-c2cc(OCCOCCCl)c(Cl)cc2F)c1=O | 191 to 193
O=C1CC[C@H](CC(c2ccc(S(=O)(=O)C3CC3)cc2)c2nc(F)c(C(=O)C3CCC3)[nH]2)C1 (stereo partly specified) | 85 to 88
CNCc1noc(-c2cc(C(C)(C)C)c(O)c(C(C)(C)C)c2)n1 | 120 to 122
CCCN(CCCCc1coc2c(OC)cccc12)C1COc2c(F)ccc(C(N)=O)c2C1 (stereo unspecified) | 99 to 110
CCN(CC)c1ccc(-c2ccc3c(c2)C=C(C(=O)Nc2ccc(CN(C)C4CCOCC4)cc2)CCS3(=O)=O)cc1 | 240 to 246
CCOC(=O)NCCC12CC(c3ccccc31)c1ccccc12 | 122 to 123
CCOC(=O)c1c(N2CCN(C(=O)c3cccs3)CC2)c2c(C)csc2n(Cc2ccccc2)c1=O | 195
O=C(NC(CO)c1ccc(-c2ccc(SC(F)F)cc2)cc1)c1c(F)cccc1F (stereo unspecified) | 156 to 157
CCCCCCCCCCCC(=O)N1CCOC1=O | 63 to 65
Cc1cccc(NC(=S)NC2N=C(c3ccccc3F)c3ccccc3N(CC(=O)N3CC4CCC(CC4)C3)C2=O)c1 (racemic) | 129 to 134
CS(=O)(=O)c1ccc(C(CC2CCCC2)c2nc(Cl)c(C(=O)C3CC3)[nH]2)cc1 (stereo unspecified) | 95 to 97
CCOC(=O)c1csc(-c2cccc([N+](=O)[O-])c2)n1 | 142 to 145
CCC(=O)NC1COC2=CC3=C(OCCC3)C(=O)C21 (stereo unspecified) | 184
O=C(O)C1C=CC=CC1(F)OC(Cc1c(CCNS(=O)(=O)Cc2ccc(Cl)c(Cl)c2)[nH]c2ccc(Cl)cc12)C(c1ccccc1)c1ccccc1 (stereo unspecified) | 117 to 119
CCC1CCCCN1C(=O)C=Cc1c(-c2cccc(N)c2)nn2ccccc12 (stereo unspecified) | 150 to 151
Cc1cc(O)c(S(=O)(=O)Cc2ccc(Cl)c(Cl)c2)c(=O)o1 | 144 to 145
Cc1cc([N+](=O)[O-])c(NCC(O)CO)c([N+](=O)[O-])c1 (stereo unspecified) | 118

Structure (SMILES) | melting point [°C]
Cc1oc2c(NC(=O)c3c(Cl)ccc(Cl)c3C(=O)O)cccc2c1C | 186 to 188
COc1cc2c3c(ccc(N)c3c1N)C(=O)N(O)C2=O | 317 to 318
C[C@@H]1N=C(c2ccccc2Cl)c2ccsc2NC1=O | 200
COc1cc2c(c(Cl)c1Cl)C1=CC(=O)CCC1(CCCCl)C2 (stereo unspecified) | 183 to 185
CCn1cc(CN(C(=O)C2CCCc3cc(OCc4ccccc4)ccc32)c2ccc(C(C)C)cc2)cn1 (stereo unspecified) | 122 to 124
COC(=O)c1cn2c(n1)COc1c(OC)cccc1-2 | 188 to 190
CCc1cc2c(cc1C(CC)SCC(=O)O)OCO2 (stereo unspecified) | 88 to 89
CC(=O)CCCC(=O)NC(CC(=O)C(=O)C(C)(Cc1c[nH]c2ccccc12)NC(=O)OC1C2CC3CC(C2)CC1C3)c1ccccc1 (stereo unspecified) | 69 to 71
CC(C)CCC(C)NC1=NS(=O)(=O)c2cc(Cl)ccc2N1 (stereo unspecified) | > 220
Cc1cc(C=NNC(N)=S)ncc1[N+](=O)[O-] | 220 to 222
O=C(CCN1CCN(c2cccc(Cl)c2)CC1)N1CC2CC3CC(C2)CC1C3 | 110 to 112
CCCCCCCCCCCCOCC1CN(c2cc3c(cc2F)c(=O)c(C(=O)O)cn3CC)CCN1 (stereo unspecified) | 125 to 127
O=P(O)(O)Cc1cc(C(F)(F)F)cc(C(F)(F)F)c1 | 206 to 208
Cc1c(F)c(N2CCC(N)C2)c(F)c2c1c(=O)c(C(=O)O)cn2C1CC1 (stereo unspecified) | > 300
Cc1cc(C(CC2CCCC2)c2ccc(S(C)(=O)=O)cc2)[nH]c1C(=O)O (stereo unspecified) | 127
CCOc1ccc(-c2nc(CCC(=O)O)cs2)cc1OCC | 111 to 114
CCN=C1SC2CCOc3ccc([N+](=O)[O-])cc3C2(O)N1CC (stereo unspecified) | 125 to 127
c1ccc(COC[C@H](CP(c2ccccc2)c2ccccc2)P(c2ccccc2)c2ccccc2)cc1 | 88
CN(C(=O)OCC(Cl)(Cl)Cl)C1CN(C(=O)Nc2ccc(C(F)(F)F)cc2)N=C1c1ccc(Cl)cc1 (stereo unspecified) | 169 to 170

Now from value to compound:

melting point [°C] | Structure (SMILES)
244 to 245 | CC1(C)C(=O)Nc2cc(C(=O)Nc3cccc(N)c3)ccc21
163 to 165 | CCOC(=O)c1c(NCc2ccccc2)nc2ccc(Br)cc2c1Cl
128 to 129 | O=C1C(=Cc2ccncc2)CCc2cc(OCCn3ccnc3)ccc21
137 | COc1ccc(-c2ncccc2OC2SCC(O)C(O)C2O)cc1 (stereo unspecified)
260 to 268 | c1cnc2c(c1)N(c1ccc3[nH]cc(C4CCNCC4)c3c1)CN2
196 | Cc1cc(C#N)c(C)c(C(=O)Nc2ccc(F)cn2)n1
216 to 217 | Cc1ccc(O)c(C(=O)Nc2cc(Cl)cc(Cl)c2)c1
190 to 192 | O=C(O)c1ccc(NCCOc2ccc(Br)cc2)cc1
90 to 93 | CCCCCCCNC(=O)Oc1ccc2c(c1)c(C)cn2NCCCc1ccncc1F
75 to 78 | O=c1nc(NCc2ccccc2F)c(F)cn1-c1ccsc1
122 to 124 | Cc1nccn1N=Cc1ccccc1
201 to 203 | C#Cc1cc(Nc2ncnc3cnc(NCc4ccc(OC)cc4)cc23)ccc1Cl
114 to 116 | Cc1nc(-n2cc(CCc3ccccc3)nn2)sc1C(=O)NCc1cccnc1
130 to 131 | Clc1ccc(Cn2c(-c3ccc4c(c3)OCO4)nc3ccccc32)s1
128 to 131 | Cc1ccc(-c2c(C(=O)NCc3cc(C(F)(F)F)cc(C(F)(F)F)c3)n(CCCCO)c(=O)c3cnccc23)cc1
135 to 136 | Cn1cc(-c2ccccc2)c(=O)c(-c2cccc([N+](=O)[O-])c2)c1
177 to 178 | NC(=O)N(O)CC(=O)Nc1cccc(OCc2ccccc2)c1
205 to 207 | N#Cc1ccc(COc2cccc(C(=O)Nc3ccc(C#N)cc3)c2)cc1
148 to 151 | CC(COc1ccc(-n2cncn2)cc1)(NS(=O)(=O)Cc1ccccc1)C(=O)O (stereo unspecified)

melting point [°C] | Structure (SMILES)
139 to 141 | O=[N+]([O-])c1cn(-c2cccnc2)nc1Br
218 to 222 | CN(CCOCC(=O)OC(C)(C)C)C(=O)c1c(-c2ccc(C(C)(C)C)cc2)n(C)n(-c2ccc(C#N)cc2)c1=O
214 to 217 | Cc1nnc(-c2ccccc2F)n2nc(OCc3ncn(C)n3)c(-c3ccsc3)c12
135 to 140 | Nc1cc(-n2cccc2)ccc1Nc1cccc(-c2ccccn2)c1
331 | Cc1sc(Nc2cccc(C#N)n2)nc1-c1cn[nH]c1
223 to 226 | COc1ccc(-c2ccccc2)cc1NC(=S)c1ncc[nH]1
178 to 179 | O=C(O)CCc1cn(Cc2ccc(OCc3ccc4ccccc4n3)cc2)nc1-c1ccc(F)cc1
177 to 178 | CCOc1nn(Cc2ccc(OCc3nc4ccccc4n3C)cc2)cc1CCC(=O)O
88.3 | O=C1N(c2cc(Cl)cc(Cl)c2)C(=O)[C@]2(Cc3ccc(Br)cc3)C[C@@H](O)CN12
233 to 235 | Cn1cnc(COc2nn3c(-c4ccc(F)cc4)nnc3cc2-c2ccccc2)n1
214 to 218 | Cc1cccc(-c2nc(N)sc2-c2ccnc(F)c2)c1
265 to 267 | Cc1nc2cnccc2n1-c1ccc(O)cc1
179 to 180 | Cn1cnc(COc2nc3c(cc2C(C)(C)C)nnn3-c2ccccc2)n1
179 to 180 | O=[N+]([O-])c1ccc(N=C(NC(=S)NCc2cccnc2)c2ccccc2)cc1
218 to 220 | NC1CCn2c1nc1cc(NC(=O)c3cc4cc(F)ccc4n3Cc3cccc(F)c3)cnc12 (stereo unspecified)
202 to 205 | Cc1nc(-n2ccc(OCc3ccccn3)cc2=O)sc1C(=O)NCc1ccccc1
215 to 217 | CCc1nnc2c(NC3CCC3)nc3ccccc3n12
164 to 166 | CN1C2CCC1CC(NC(=O)c1cccc3nc(-c4ccccc4)oc13)C2 (stereo unspecified)
